One test deals with P-gp in MCF-7/ADR. As to the kind of experiment: Rh-123 accumulation assay (flow cytometry). Format: cell-based, human. As to conditions: 9e 20 nM, vs DMSO. The method, then:
Harvest the MCF-7/ADR cells and seed them into a 96-well plate (2 × 10^5 cells/well). Following overnight culture, cells were treated with 9e (10 and 20 nM) or DMSO (vehicle control) for 60 min. After aspiration of the medium, cells were washed thrice with PBS and subsequently incubated with Rh123 solution (1 μg/mL; Sigma-Aldrich) for 60 min. Subsequently, wash three times with PBS, then digest and centrifuge them (1000× g, 5 min). Resuspend the cells with 1 mL of PBS and centrifuge again (1000× g, 5 min). Finally, after resuspending the cells with 200 μL of PBS, the fluorescence of Rh123 was analyzed by flow cytometry (Beckman, Brea, CA, USA).

The subject of test [1] is MCF-7/ADR (doxorubicin-resistant human breast cancer cell line). The test can be described thus: In vitro antiproliferative assay (MTT, 48 h), MCF-7/ADR. Format: cell-based. An excerpt:
The MDA-MB-468 cell line was procured from the Cell Bank of the Chinese Academy of Sciences. The MCF-7, MCF-7/ADR, MCF-10A, and MDA-MB-231 cell lines were kindly provided by Professor Xianyi Sha (Fudan University, Shanghai, China). The HUVEC cells were kindly provided by Associate Professor Hulie Zeng (Fudan University, Shanghai, China). The MDA-MB-468, MDA-MB-231, MCF-7, MCF-10A, and HUVEC cells were cultivated in DMEM (Service Biotechnology, China) supplemented with 10% FBS (Capricorn Scientific, Germany) and 1% penicillin-streptomycin (Meilunbio, Dalian, China). For the MCF-7/ADR cells, they were cultured in RPMI-1640 (Service Biotechnology, Wuhan, China), containing 10% FBS and 1% penicillin-streptomycin. Additionally, 500 ng/mL of doxorubicin (Sigma-Aldrich, Saint Louis, MO, USA) was incorporated into the RPMI-1640 culture medium to keep drug resistance. All cell lines were cultured in a humidified incubator at 37 °C with a 5% CO2 atmosphere.
Following harvest during logarithmic growth, cells were plated in 96-well culture plates at an initial density of 5000 cells per well. Incubate the plate overnight at 37 °C to allow the cells to adhere. Following the overnight incubation, introduce the compound at the predetermined concentration into each well, and then return the plate to the incubator for an additional 48 h culture period. After the 48 h treatment, carefully aspirate the drug-containing medium from each well. Subsequently, add 150 μL of 0.5 mg/mL MTT (Beyotime, China) solution to each well. Protect the plate from light and incubate it at 37 °C for 4 h to allow the formation of formazan crystals. Finally, add 150 μL of DMSO (Sinopharm, China) to each well and gently mix to ensure complete dissolution of the formazan crystals. The OD value at 570nm was measured using a microplate reader (Thermo Fisher, Waltham, MA, USA). Cell proliferation inhibition was determined using the following formula:Inhibition (%) = [(ODDMSO − ODcompd.)/(ODDMSO − ODblank)] × 100
GraphPad Prism software 9 was used to calculate the IC50 values. The specific calculation process is as follows: Firstly, we input the experimental data into Prism. The data include the concentrations of the experimental compounds and the corresponding biological response values. For instance, in the cell experiment, we recorded the cell viability values at different drug concentrations. Subsequently, we select the option of “Dose–Response–Nonlinear Regression” in the “Analyze” menu for curve fitting. Generally speaking, we use the model of “[Inhibitor] vs. normalized response—Variable slope”. The Prism software fits the data through the nonlinear least squares method and finds the parameter values that can minimize the difference between the model’s predicted values and the actual data. After completing the curve fitting, the software will directly provide the estimated values and confidence intervals of the IC50 value and other relevant parameters. Meanwhile, it will also offer goodness-of-fit indices, such as the correlation coefficient, to evaluate the quality of the fitting. Through the above method, we can accurately calculate the IC50 value, thereby assessing the intensity of the inhibitory or activating effect of the compound on the biological system.

The next test deals with T1, hERG potassium channels (Homo sapiens, UniProt Q12809).
T1 construct: expressed in transfected cells; host or cells: CHO-hERG cells (CHO cells expressing hERG)
T1 sequence (Q12809 whole entry): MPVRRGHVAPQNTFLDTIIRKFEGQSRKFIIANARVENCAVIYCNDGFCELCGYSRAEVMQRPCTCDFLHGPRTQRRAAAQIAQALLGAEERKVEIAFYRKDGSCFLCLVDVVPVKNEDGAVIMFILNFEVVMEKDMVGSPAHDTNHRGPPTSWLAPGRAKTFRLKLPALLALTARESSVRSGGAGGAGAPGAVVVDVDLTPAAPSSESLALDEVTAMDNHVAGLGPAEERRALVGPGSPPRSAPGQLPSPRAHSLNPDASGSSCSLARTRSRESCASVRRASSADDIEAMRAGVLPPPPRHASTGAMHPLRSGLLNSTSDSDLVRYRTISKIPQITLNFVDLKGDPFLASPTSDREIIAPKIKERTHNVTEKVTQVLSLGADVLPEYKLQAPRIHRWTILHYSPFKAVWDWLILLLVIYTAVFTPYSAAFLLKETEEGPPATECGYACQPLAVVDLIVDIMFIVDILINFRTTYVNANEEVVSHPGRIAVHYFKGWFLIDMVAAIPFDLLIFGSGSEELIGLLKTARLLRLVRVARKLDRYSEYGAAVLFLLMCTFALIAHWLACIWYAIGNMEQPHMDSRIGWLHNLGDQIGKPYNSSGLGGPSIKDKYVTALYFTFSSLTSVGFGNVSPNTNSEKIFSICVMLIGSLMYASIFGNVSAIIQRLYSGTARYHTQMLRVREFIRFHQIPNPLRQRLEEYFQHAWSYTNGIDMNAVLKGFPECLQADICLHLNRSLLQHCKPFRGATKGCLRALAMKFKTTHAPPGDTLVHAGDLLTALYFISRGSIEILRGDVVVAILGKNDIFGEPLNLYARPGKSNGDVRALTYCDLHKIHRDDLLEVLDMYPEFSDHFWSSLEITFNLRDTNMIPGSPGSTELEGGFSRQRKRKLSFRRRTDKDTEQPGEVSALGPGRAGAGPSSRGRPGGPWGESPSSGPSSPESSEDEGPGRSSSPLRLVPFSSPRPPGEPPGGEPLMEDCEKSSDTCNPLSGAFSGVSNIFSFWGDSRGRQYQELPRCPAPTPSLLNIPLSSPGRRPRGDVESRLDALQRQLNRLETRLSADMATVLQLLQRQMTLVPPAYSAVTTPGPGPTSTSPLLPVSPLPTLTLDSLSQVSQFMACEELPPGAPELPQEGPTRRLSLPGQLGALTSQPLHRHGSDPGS
The test can be described thus: Inhibition of hERG potassium channels (QPatch patch clamp, CHO-hERG cells). Format: cell-based. The method, then:
CHO-hERG cells (2 × 10^6 cells/dish) were seeded in confocal dishes. The compound stock solution was diluted with DMSO to six concentrations: 40.00, 13.33, 4.44, 1.48, 0.49, and 0.16 μM, which was prepared by using the Bravo platform. Both single-cell high-resistance sealing and whole-cell mode formation were automatically performed by the QPatch system (Shanghai Institute of Materia Medica, Shanghai, China). Each concentration was tested on at least two cells (n ≥ 2).

A further test deals with MCF-7/ADR. As to the kind of experiment: Lysosomal and mitochondrial NO levels (Lyso-NO, Mito-NO probes), MCF-7/ADR. Format: cell-based, human. The protocol: (§1) Lysosomal NO probes (Lyso-NO) and mitochondrial NO probes (Mito-NO), which are specifically used for detecting the nitric oxide levels in lysosomes and mitochondria, respectively, were provided by Professor Weili Zhao (Fudan University, China). Cells (MCF-7 or MCF-7/ADR) were plated in 6-well plates (2 × 10^5 cells/well). After overnight incubation, indicated concentrations of 9e were added to the cells for 4 h. Cells were first treated with 10 μM Lyso-NO or Mito-NO (15 min, 37 °C), then counterstained with Hoechst 33,342 nuclear dye (Beyotime, China; 10 min, 37 °C). Finally, the fluorescence intensity was measured under a fluorescence microscope (Olympus, Tokyo, Japan).

Another test has as its system MCF-7. The test can be described thus: Lysosomal and mitochondrial NO levels (Lyso-NO, Mito-NO probes), MCF-7. Format: cell-based, human. As to conditions: 9e. The method, then: as §1

Some results are limits rather than exact numbers.

We go through 1 compound from paper PMC12156367, “Synthesis and Biological Evaluation of Seco-Coumarin/Furoxan Hybrids as Potent Anti-Tumor Agents to Overcome Multidrug Resistance via Multiple Mechanisms” (Molecules, 2025).

As for `COc1ccc(CCC(=O)c2ccc(OCCOc3no[n+]([O-])c3S(=O)(=O)c3ccccc3)cc2OC)cc1` [Compound 9e, 4-(2-(3-methoxy-4-(3-(4-methoxyphenyl)propanoyl)phenoxy)ethoxy)-3-(phenylsulfonyl)-1,2,5-oxadiazole 2-oxide], in the test on P-gp in MCF-7/ADR, the “Rh-123 accumulation (in words)” value was “accumulated significantly”. The IC50 in test [1] (Homo sapiens, NCI/ADR-RES, MTT, 48 h, mean of three determinations) was 3.02 nM; at hERG potassium channels, over 40000 nM. Further, the “Selectivity Ratio IC50(MCF-7)/ IC50(MCF-7/ADR)” value in test [1] (collateral sensitivity) came out at 1402.0. For the same compound, the Lyso-NO probe signal result in the test on MCF-7/ADR (10 nM 9e, vs vehicle) is recorded as “significant rise”. Besides, the Mito-NO probe signal result in the test on MCF-7/ADR (9e, vs control) was “no difference”. Further, the “Lyso-NO and Mito-NO probe fluorescence intensity” value in the test on MCF-7 is given as “no increase in fluorescence intensity”.
